From publication PMC8863381 (Journal of Enzyme Inhibition and Medicinal Chemistry, 2022)
pIC50, pKi: −log10 of the molar value. Where two headings read alike, the source gives them in different places.

Tests used:
[1] = system: A549 lung cancer cells; assay: SRB cell viability assay, A549; format: cell-based, human; settings: for pIC50: Homo sapiens, A549, 72 h, read-out: IC50 A549; for Selectivity index A549: normal HSF versus A549
[2] = system: MCF-7 breast cancer cell line; assay: SRB cell viability assay, MCF-7; format: cell-based, human; settings: for pIC50: Homo sapiens, MCF7, 72 h, read-out: IC50 MCF-7; for Selectivity index MCF-7: normal HSF versus MCF-7
[3] = system: normal human skin fibroblast cell line HSF; assay: SRB cell viability assay, HSF normal cells; format: cell-based; settings: 72 h, read-out: IC50 HSF
[4] = molecular target: hCA IX (Homo sapiens, UniProt Q16790); assay: biochemical; settings: for Selectivity ratio I/IX: KI hCA I / KI hCA IX; for Selectivity ratio II/IX: KI hCA II / KI hCA IX; for log KI hCA IX (experimental) / Ki: log of KI in nM, compounds of this paper; for pKi: 15 min preincubation, mean from 3 different assays; for Ki: log KI hCA IX (experimental)
[5] = molecular target: hCA II (Homo sapiens, UniProt P00918); assay: stopped flow CO2 hydrase assay, hCA II; format: biochemical
[6] = molecular target: hCA XII (Homo sapiens, UniProt O43570); assay: stopped flow CO2 hydrase assay, hCA XII; format: biochemical; settings: for Selectivity ratio I/XII: KI hCA I / KI hCA XII; for Selectivity ratio II/XII: KI hCA II / KI hCA XII; for Log KI hCA XII (experimental) / Ki: log of KI in nM, compounds of this paper; for pKi: 15 min preincubation, mean from 3 different assays; for Ki: Log KI hCA XII (experimental)
[7] = molecular target: hCA I (Homo sapiens, UniProt P00915); assay: stopped flow CO2 hydrase assay, hCA I; format: biochemical
[8] = read-out: KI hCA II, 15 min preincubation, mean from 3 different assays
[9] = read-out: KI hCA I, 15 min preincubation, mean from 3 different assays

Sequence of hCA I (P00915 whole entry): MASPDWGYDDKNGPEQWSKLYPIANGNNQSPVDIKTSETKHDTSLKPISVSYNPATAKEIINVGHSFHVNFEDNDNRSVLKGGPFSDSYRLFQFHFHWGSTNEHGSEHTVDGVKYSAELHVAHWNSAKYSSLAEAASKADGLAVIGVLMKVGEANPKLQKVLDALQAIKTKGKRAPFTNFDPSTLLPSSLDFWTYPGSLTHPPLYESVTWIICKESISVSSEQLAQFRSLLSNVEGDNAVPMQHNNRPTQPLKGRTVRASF
Sequence of hCA XII (O43570 25-354): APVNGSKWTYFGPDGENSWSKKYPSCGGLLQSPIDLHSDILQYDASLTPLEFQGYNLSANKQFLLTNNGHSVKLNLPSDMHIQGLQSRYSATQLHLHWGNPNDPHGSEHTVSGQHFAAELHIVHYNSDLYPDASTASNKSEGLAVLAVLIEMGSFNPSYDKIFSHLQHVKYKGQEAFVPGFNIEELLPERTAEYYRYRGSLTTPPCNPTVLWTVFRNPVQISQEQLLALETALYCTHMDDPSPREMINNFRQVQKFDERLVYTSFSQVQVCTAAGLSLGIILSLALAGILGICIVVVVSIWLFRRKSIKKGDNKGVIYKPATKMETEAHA

Compound	pIC50 [1]	pIC50 [2]	Selectivity ratio I/IX [4]	Selectivity ratio II/IX [4]	Selectivity ratio I/XII [6]	Selectivity ratio II/XII [6]	pKi ([4]; KI hCA IX)	Ki [4] [nM]	pKi [5]	pKi ([6]; KI hCA XII)	Ki [6] [nM]	pKi [7]	pIC50 [3]	also measured
COc1cccc2c1C(=O)c1c(O)c3c(c(O)c1C2=O)C[C@@](O)(C(=O)CO)C[C@@H]3O[C@H]1C[C@H](N)[C@H](O)[C@H](C)O1 [Doxorubicin, reference compound]	6.72	6.20	–	–	–	–	–	–	–	–	–	–	6.66	Selectivity index A549 [1]: 1.157; Selectivity index MCF-7 [2]: 0.349
NS(=O)(=O)c1ccc(NN=C2C(=O)N(CC(=O)Nc3ccc(Br)cc3)c3ccccc32)cc1 [3c, N-(4-Bromophenyl)-2–(2-oxo-3–(2-(4-sulfamoylphenyl)hydrazono)indolin-1-yl)acetamide]	5.23	< 4.00	13.392	0.991	1.245	0.092	7.24	57	7.25	6.21	612	6.12	< 4.00	Selectivity index A549 [1]: > 16.94
NS(=O)(=O)c1ccc(NN=C2C(=O)N(CC(=O)Nc3ccc(Cl)cc3)c3ccccc32)cc1 [3b, N-(4-Chlorophenyl)-2–(2-oxo-3–(2-(4-sulfamoylphenyl)hydrazono)indolin-1-yl)acetamide]	–	–	7.252	3.674	1.881	0.953	6.91	123	6.34	6.32	474	6.05	–	–
Cc1ccc(NC(=O)CN2C(=O)C(=NNc3ccc(S(N)(=O)=O)cc3)c3ccccc32)cc1 [3d, 2–(2-Oxo-3–(2-(4-sulfamoylphenyl)hydrazono)indolin-1-yl)-N-p-tolylacetamide]	5.29	6.06	7.672	0.934	0.923	0.112	7.07	86.1	7.10	6.15	710	6.18	5.84	Selectivity index A549 [1]: 0.28; Selectivity index MCF-7 [2]: 1.68
NS(=O)(=O)c1ccc(NC(=O)CN2C(=O)C(=O)c3ccccc32)cc1 [2h, 2–(2,3-Dioxoindolin-1-yl)-N-(4-sulfamoylphenyl)acetamide]	< 4.00	< 4.00	0.673	0.087	5.701	0.742	7.17	67	8.23	8.10	8	7.35	< 4.00	cytotoxic activity against A549 [1]: no cytotoxic activity; cytotoxic activity against MCF-7 [2]: no cytotoxic activity
NS(=O)(=O)c1ccc(NN=C2C(=O)N(CC(=O)Nc3ccccc3)c3ccccc32)cc1 [3a, 2–(2-Oxo-3–(2-(4-sulfamoylphenyl)hydrazono)indolin-1-yl)-N-phenylacetamide]	–	–	18.384	1.203	1.088	0.071	6.67	216	6.59	5.44	3650	5.40	–	–

Continued, in another order:

pIC50 [1]	pIC50 [2]	Selectivity ratio I/IX [4]	Selectivity ratio II/IX [4]	Selectivity ratio I/XII [6]	Selectivity ratio II/XII [6]	pKi ([4]; KI hCA IX)	Ki [4] [nM]	pKi [5]	pKi ([6]; KI hCA XII)	Ki [6] [nM]	pKi [7]	Compound	pIC50 [3]	also measured
–	–	14.824	0.797	1.412	0.076	–	–	–	–	–	–	2–(2-Oxo-3–(2-(2–(4-sulfamoylphenylamino)acetyl)hydrazono)indolin-1-yl)-N-m-tolylacetamide [4d]	–	log KI hCA IX (experimental) [4]: 2.759; pKi ([4]; read-out: KI hCA IX): 6.24; pKi [5, 8]: 6.34; Log KI hCA XII (experimental) [6]: 3.78; pKi ([6]; read-out: KI hCA XII): 5.22; pKi [7, 9]: 5.07
–	–	0.829	0.272	7.221	2.373	5.13	7330	5.70	6.07	843	5.22	NS(=O)(=O)c1ccc(NCC(=O)NN=C2C(=O)N(CC(=O)Nc3ccccc3Br)c3ccccc32)cc1 [4g, N-(2-Bromophenyl)-2–(2-oxo-3–(2-(2–(4-sulfamoylphenylamino)acetyl)hydrazono)indolin-1-yl)acetamide]	–	–
–	–	2.957	2.133	6.122	4.416	–	–	–	–	–	–	N-(3-Methoxyphenyl)-2–(2-oxo-3–(2-(2–(4-sulfamoylphenylamino)acetyl) hydrazono)indolin-1-yl)acetamide [4e]	–	log KI hCA IX (experimental) [4]: 3.498; pKi ([4]; read-out: KI hCA IX): 5.50; pKi [5, 8]: 5.17; Log KI hCA XII (experimental) [6]: 3.182; pKi ([6]; read-out: KI hCA XII): 5.82; pKi [7, 9]: 5.03
–	–	0.819	0.554	5.823	3.937	5.27	5360	5.53	6.12	753	5.36	NS(=O)(=O)c1ccc(NCC(=O)NN=C2C(=O)N(CC(=O)Nc3ccccc3Cl)c3ccccc32)cc1 [4f, N-(2-Chlorophenyl)-2–(2-oxo-3–(2-(2–(4-sulfamoylphenylamino)acetyl)hydrazono)indolin-1-yl)acetamide]	–	–
–	–	2.149	1.169	1.670	0.909	5.41	3930	5.34	5.30	5050	5.07	NS(=O)(=O)c1ccc(NCC(=O)NN=C2C(=O)N(CC(=O)Nc3ccc(Cl)cc3)c3ccccc32)cc1 [4b, N-(4-Chlorophenyl)-2–(2-oxo-3–(2-(2–(4-sulfamoylphenylamino)acetyl)hydrazono)indolin-1-yl)acetamide]	–	–
–	–	5.741	0.995	0.683	0.118	6.09	807	6.09	5.17	–	5.33	NS(=O)(=O)c1ccc(NCC(=O)NN=C2C(=O)N(CC(=O)Nc3ccccc3)c3ccccc32)cc1 [4a, 2–(2-Oxo-3–(2-(2–(4-sulfamoylphenylamino)acetyl)hydrazono)indolin-1-yl)-N-phenylacetamide]	–	–
–	–	3.596	1.119	1.029	0.320	–	–	–	–	–	–	N-(3-Bromophenyl)-2–(2-oxo-3–(2-(2–(4-sulfamoylphenylamino)acetyl)hydrazono) indolin-1-yl)acetamide [4c]	–	log KI hCA IX (experimental) [4]: 2.816; pKi ([4]; read-out: KI hCA IX): 6.18; pKi [5, 8]: 6.14; Log KI hCA XII (experimental) [6]: 3.359; pKi ([6]; read-out: KI hCA XII): 5.64; pKi [7, 9]: 5.63
